According to patent US12534451B2, “Small molecule modulators of PanK” (St. Jude Children's Research Hospital, priority 2019, dated 2026):

Assays:
human PANK3 = human PANK3 (Homo sapiens (Human), UniProt Q9H999); assay: PANK activity assay (radiochemical, D-[1-14C]pantothenate); type: biochemical; settings: 5 nM human PANK3, 2.5 mM ATP, 45 μM pantothenate, 10 min at 37° C.; average ± data range
Experimental: The PanK activity and Surface Plasmon Resonance assays were conducted as explained in the literature.
If the IC^50 was determined to be in the nM range then the assay was repeated in the presence of 0-1 μM or 0-0.1 μM compound to more precisely determine the IC^50. All the experiments were repeated twice in duplicate and the data were an average ±data range.
The experiments mimicking the mixture of ligands present in vivo were performed under different conditions. […] The IC^50 values for the structure-activity study were calculated by fitting the inhibition data to a one-site model of the Michaelis-Menten equation. […] Thus, the data were fit to Morrison's quadratic equation (GraphPad software) that accounts for the impact of enzyme inhibitor binding on the free concentration of inhibitor.

[1] = system: Human C3A [HepG2/C3A] cells; assay: Cellular total CoA determination in C3A cells; type: cell-based; settings: 24 hrs of treatment
Experimental: Human C3A [HepG2/C3A, derivative of HepG2] cells (ATCC #CRL-10741) were purchased from ATCC® and maintained in Eagle's minimum Essential medium (ATCC) supplemented with 2 mM glutamine, 10% fetal bovine serum (FCS, Altanta Biologicals), 50 U/ml penicillin and […] streptomycin. The C3A cell line was confirmed to be mycoplasma-free. Test compounds or vehicle control (DMSO) was added and after 24 hrs of treatment the cells were washed with PBS and harvested and subjected to total CoA determination.
Cultured cells were resuspended in 2 ml cold water to which 500 μl of 0.25M KOH was added, derivatized with monobromobimane (mBBr, Life technologies) and quantified by HPLC. 30 mg of frozen tissue is homogenized in 2 ml of 1 mM KOH and then derivatized with mBBr. The mBBr derivatized samples were fractionated by reverse-phase HPLC using a Gemini C18 3 μm column (150×4.60 mm) from Phenomenex. The chromatography system was a Waters e2695 separation module with a UV/Vis and fluorescence detector and controlled by Empower 3 software. Solvent A was 50 mM potassium phosphate pH 4.6, and solvent B was 100% acetonitrile. Twenty microliters of sample was injected onto the column, and the flow rate was 0.5 ml/min. The HPLC program was the following: starting solvent mixture of 90% A/10% B, 0-2 min isocratic with 10% B, 2-6 min linear gradient from 10% B to 15% B, 6-18 min concave gradient from 15% B to 40% B, 18-23 min isocratic with 40% B, 23-25 min linear gradient from 40 to 10%, and 25-30 min isocratic with 10% B. The UV/vis detector was set at 393 nm, and the fluorescence detector was set with excitation at 393 nm and emission at 470 nm. The elution position of the mBBr-CoA, was determined by comparison with mBBr-CoA prepared from commercial CoA (Avanti Polar Lipids). The areas under the mBBr-derivatized CoA was integrated and compared to known concentrations of the mBBr-CoA standard.

human PANK3, sequence (Q9H999 whole entry): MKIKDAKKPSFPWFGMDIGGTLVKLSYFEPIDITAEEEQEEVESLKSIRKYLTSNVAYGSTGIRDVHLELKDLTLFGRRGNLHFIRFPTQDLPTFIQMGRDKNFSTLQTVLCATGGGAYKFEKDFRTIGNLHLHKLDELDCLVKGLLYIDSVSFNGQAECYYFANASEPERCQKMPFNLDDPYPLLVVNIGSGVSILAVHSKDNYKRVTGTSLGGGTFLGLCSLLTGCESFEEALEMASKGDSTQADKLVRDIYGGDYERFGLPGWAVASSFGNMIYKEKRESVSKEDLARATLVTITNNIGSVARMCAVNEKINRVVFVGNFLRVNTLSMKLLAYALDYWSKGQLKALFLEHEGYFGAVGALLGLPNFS

Compound | IC50 (human PANK3) | C3A CoA% elevation [1]
CS(=O)(=O)Nc1ccc(CC(=O)N2CCN(c3nc4ccccc4s3)CC2)cc1 [PZ-4294] | 13 ± 1.3 nM | 102.23%
O=C(Cc1ccc(C2CC2)cc1)N1CCN(c2nc3cccnc3o2)CC1 [PZ-4301] | 52.9 ± 6.4 nM | 268.3%
O=C(Cc1ccc(C2CC2)cc1)N1CCN(c2nc3ncccc3o2)CC1 [PZ-4314] | 2.9 ± 0.1 nM | 275%
CN(C)c1ccc(CC(=O)N2CCN(c3nc4ncccc4s3)CC2)cc1 [PZ-4316] | 5 ± 0.5 nM | 183.4%
CS(=O)(=O)Nc1ccc(CC(=O)N2CCN(c3nc4ncccc4s3)CC2)cc1 [PZ-4320] | 1.4 ± 0.16 nM | 58%
CS(=O)(=O)Nc1ccc(CC(=O)N2CCN(c3nc4c(F)cccc4s3)CC2)cc1 [PZ-4322] | 4.1 ± 0.49 nM | 171.6%
CS(=O)(=O)Nc1ccc(CC(=O)N2CCN(c3nc4c(F)cc(F)cc4s3)CC2)cc1 [PZ-4324] | 1.3 ± 0.06 nM | 104.3%

The next lines start with results.

IC50 (human PANK3) | Compound | C3A CoA% elevation [1]
2.1 ± 0.1 nM | O=C(Cc1ccc(C2CC2)cc1)N1CCN(c2nc3c(F)cc(F)cc3s2)CC1 [PZ-4291] | 238.4%
1 ± 0.1 nM | O=C(Cc1ccc(C2CC2)cc1)N1CCN(c2nc3ncccc3s2)CC1 [PZ-4298] | 60.1%
7.2 ± 1.3 nM | O=C(Cc1ccc(C2CC2)cc1)N1CCN(c2nc3c(F)cccc3s2)CC1 [PZ-4299] | 228.4%
3.9 ± 0.3 nM | O=C(Cc1ccc(C2CC2)cc1)N1CCN(c2nc3ccc(F)cc3s2)CC1 [PZ-4300] | 242.5%
14.3 ± 0.6 nM | O=C(Cc1ccc(C2CC2)cc1)N1CCN(c2nc3ccc(F)cc3o2)CC1 [PZ-4304] | 167%
5.4 ± 0.4 nM | O=C(Cc1ccc(C2CC2)cc1)N1CCN(c2nc3cc(F)ccc3s2)CC1 [PZ-4306] | 238.6%
